Test results published in US20110214196A1, “DEVELOPMENT OF HERBICIDE-RESISTANT GRASS SPECIES” (University of Georgia Research Foundation, priority 2008, published 2011).

How the values were obtained:
[1] = test system: Large crabgrass (Digitaria sanguinalis); experiment: Large crabgrass dose response study, plants from sod farm seed; assay type: in vivo
Procedure: Plants were grown from seed collected from a turfgrass sod farm near where sethoxydim had been continuously used for twelve years. Seeds were planted in 250 mL styrofoam cups with a potting mixture of pure sand in a glasshouse with supplemental lighting (300 uE/m2/s) and 30/25 temperature. Plants were watered once daily and fertilized once a week. Large crabgrass plants were treated with herbicides when 3-5 cm tall in a dose response study. Four herbicides (sethoxydim, fluazifop, clethodim, and pinoxaden) were applied at […]. Plant injury was observed 7 and 14 DAT. The experimental design consisted of a randomized complete block design with three replications. The experiment was replicated in time.

bermudagrass = experiment: Controlling weedy species in a plot of bermudagrass and sethoxydim-resistant seashore paspalum; assay type: in vivo
Procedure: (§1) A plot containing both bermudagrass and sethoxydim-resistant seashore paspalum is treated with 150 g a.i. ha^−1 sethoxydim once a week over a period of three months. Over the three month treatment period, it is observed that the bermudagrass slowly dies out while the sethoxydim-resistant paspalum continues to thrive, leaving the plot populated with above 80% sethoxydim-resistant paspalum.
as §1, with “treated with both 150 g” for “treated with 150 g”, “ha^−1 sethoxydim and 150 g a.i. ha^−1 fenoxaprop once a” for “ha^−1 sethoxydim once a”

Compound: CCC/C(=N\OCC)C1=C(O)CC(CC(C)SCC)CC1=O (centres unmarked) [sethoxydim, 2-[1-(ethoxyimino)-butyl]-5-[2-(ethylthio)propyl]-3-hydroxy-2-cylohexen-1-one]
- resistance or susceptibility of this population of large crabgrass ([1]; conclusion from ED50 values): resistant
- ED50 of resistant (R) population relative to wild type (S) population ([1]; crabgrass, FIG. 17): approximately 10 times
- effective dose required to cause 50% injury (ED50) ([1]; large crabgrass grown from sod farm seed, treated when 3-5 cm tall): 245±37 g ai/ha
- plot populated with sethoxydim-resistant paspalum; bermudagrass slowly dies out (bermudagrass; 150 g a.i. ha^−1 sethoxydim and 150 g a.i. ha^−1 fenoxaprop once a week over three months): above 80%
- plot populated with sethoxydim-resistant paspalum; bermudagrass slowly dies out (bermudagrass; 150 g a.i. ha^−1 sethoxydim once a week over three months): above 80%
